Experiment [1] concerns the target T1, hAC1 (Homo sapiens, UniProt Q08828).
T1 construct: expressed in transfected cells
Put plainly: Cyclic AMP accumulation in HEK cells stably expressing AC1, stimulated with A23187 (HTRF). Type of experiment: cell-based. The note with it: HEK-AC1 cells; for inhibition at 30 µM: HEK293; for IC50: read-out: HEK-AC1 IC50. The procedure:
The development and mechanistic characterization of AC1-selective small molecule inhibitors is believed to provide novel non-opioid weapons in the war on chronic pain. We identified our initial hits via screening 10,000 selected compounds from the Life Chemicals collection. The screen was carried out using HEK cells stably expressing AC1 (HEK-AC1) and cyclic AMP accumulation was stimulated using the Ca^2+ ionophore, A23187 to selectively activate AC1. Compounds with potential chemical liabilities and PAINs were removed from further evaluation (Baell and Holloway, J. Med. Chem. 2010, 53, 2719-2740).
(§1) Fresh powders of several robust inhibitors (>90% inhibition) were evaluated in multiple confirmation assays assessing the dose response relationship for inhibiting AC1 and AC8 activity. Confirmation assays used A23817 to selectively stimulate recombinant AC1 or AC8 in the HEK cell background (Cumbay and Watts (2001), J. Pharmacol Exp Ther 297:1201-1399). This approach takes advantage of one unique regulatory property of AC1 for the development of selective inhibitors. Both AC1 and AC8 are robustly activated by Ca^2+/CaM under a variety of conditions, whereas the effects of Ca^2+/CaM on AC3 are modest and conditional requiring activation by G proteins. Previous studies have identified unique Ca^2+/CaM binding domains as one possible site of interaction to achieve AC1 (vs. AC8) selectivity (Masada et al., 2012, Biochemistry 51:7917-7929).
(§2) The primary technology we employed to measure cAMP accumulation was a homogenous time-resolved fluorescence (HTRF) assay, the same technology utilized in the primary screen. […] This could be due to either 1) the chemical scaffolds are exquisitely selective toward the AC family of enzymes or 2) the library has not been screened against a sufficient number of targets. The answer is likely a combination of the two; nonetheless, the lack of biological data to date bodes well for these series and any potential off-target promiscuity.
(§3) Human embryonic kidney (HEK) cells stably expressing AC1, AC8, or AC1 with the MOR were cultured in Dulbecco's Modified Eagle Medium (Life Technologies, Grand Island, N.Y.) supplemented with 5% bovine calf serum (Hyclone, Logan, Utah), 5% fetal clone I (Hyclone), Antibiotic-Antimycotic (Life Technologies), and G418 (Invivogen, San Diego, Calif.) (HEK-AC1), or hygromycin B (Fisher Scientific, Pittsburgh, Pa.) (HEK-AC8), or G418 and puromycin (Sigma-Aldrich) (HEK-AC1/MOR). Chinese hamster ovary (CHO) cells expressing the MOR (CHO-MOR) in the PathHunter® β-Arrestin GPCR assay platform were purchased from DiscoveRx (Freemont, Calif.). Cells were grown in Ham's F12 media supplemented with 1 mM L-glutamine (Thermo Scientific, West Palm Beach, Fla.), 10% fetal bovine serum (Hyclone), 50 U/ml penicillin, 50 μg/ml streptomycin (Life Technologies), G418 and hygromycin B. Cells were grown and frozen as previously described (J. M. Conley, et al., J Vis Exp, e51218 (2014)).
(§4) Cyclic AMP accumulation was measured as previously described (Brust, et al., J. Pharmacol. Exp. Ther. 352, 480-493(2015)). Briefly, cryopreserved cells were thawed, resuspended in optiMEM (Life Technologies), and plated in white, flat bottom, low-volume, tissue culture-treated 384 well plates (PerkinElmer, Shelton, Conn.). Plates with cells were incubated in a 37° C. humidified incubator for 1 h. Inhibitors were added and plates were incubated at room temperature for 30 min followed by the addition of AC stimulants in the presence of 500 μM IBMX. Cells were incubated at room temperature for 1 h and cAMP accumulation was measured using Cisbio's cAMP kit (Cisbio Bioassays, Bedford, Mass.) according to the manufacturer's instructions.

Experiment [2] addresses T2, hAC8 (Homo sapiens, UniProt P40145).
T2 construct: expressed in transfected cells
Put plainly: Cyclic AMP accumulation in HEK cells stably expressing AC8, stimulated with A23187 (HTRF). Type of experiment: cell-based. The following applies: HEK-AC8 cells; for inhibition at 30 µM: HEK293; for IC50: read-out: HEK-AC8 IC50. The procedure:
as §1, §2, §3, §4

T2 sequence (P40145 whole entry): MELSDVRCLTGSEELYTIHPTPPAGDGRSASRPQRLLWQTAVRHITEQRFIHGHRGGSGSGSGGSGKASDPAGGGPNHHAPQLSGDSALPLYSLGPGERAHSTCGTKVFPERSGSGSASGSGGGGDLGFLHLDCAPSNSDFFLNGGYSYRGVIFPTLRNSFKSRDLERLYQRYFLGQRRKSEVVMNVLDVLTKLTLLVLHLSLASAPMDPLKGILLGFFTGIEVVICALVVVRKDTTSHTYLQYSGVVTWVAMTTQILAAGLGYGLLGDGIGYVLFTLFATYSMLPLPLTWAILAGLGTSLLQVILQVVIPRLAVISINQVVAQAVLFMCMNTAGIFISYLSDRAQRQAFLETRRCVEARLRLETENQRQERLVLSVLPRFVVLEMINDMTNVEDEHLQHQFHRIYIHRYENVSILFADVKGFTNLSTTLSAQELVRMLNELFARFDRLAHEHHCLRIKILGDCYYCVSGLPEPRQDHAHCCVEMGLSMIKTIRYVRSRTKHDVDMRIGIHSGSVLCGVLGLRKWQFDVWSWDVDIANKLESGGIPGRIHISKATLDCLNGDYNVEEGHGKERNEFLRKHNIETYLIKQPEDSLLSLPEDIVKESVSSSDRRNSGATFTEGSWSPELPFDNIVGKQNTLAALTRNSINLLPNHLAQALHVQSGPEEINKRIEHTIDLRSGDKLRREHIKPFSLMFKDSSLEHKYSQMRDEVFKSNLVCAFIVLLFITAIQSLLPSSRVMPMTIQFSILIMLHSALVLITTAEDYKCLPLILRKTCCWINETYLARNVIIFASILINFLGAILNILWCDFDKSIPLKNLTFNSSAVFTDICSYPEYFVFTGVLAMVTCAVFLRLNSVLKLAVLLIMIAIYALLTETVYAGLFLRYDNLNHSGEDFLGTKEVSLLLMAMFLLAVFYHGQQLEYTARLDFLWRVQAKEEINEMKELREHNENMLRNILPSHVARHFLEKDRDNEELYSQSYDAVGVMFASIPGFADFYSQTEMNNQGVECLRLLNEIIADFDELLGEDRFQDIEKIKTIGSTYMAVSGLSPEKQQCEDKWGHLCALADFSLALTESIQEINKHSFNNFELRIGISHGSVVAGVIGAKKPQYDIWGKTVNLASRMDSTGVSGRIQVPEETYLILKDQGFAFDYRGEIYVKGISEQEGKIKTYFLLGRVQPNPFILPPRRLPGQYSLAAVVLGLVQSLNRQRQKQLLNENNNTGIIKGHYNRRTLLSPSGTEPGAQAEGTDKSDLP
T1 sequence (Q08828 whole entry): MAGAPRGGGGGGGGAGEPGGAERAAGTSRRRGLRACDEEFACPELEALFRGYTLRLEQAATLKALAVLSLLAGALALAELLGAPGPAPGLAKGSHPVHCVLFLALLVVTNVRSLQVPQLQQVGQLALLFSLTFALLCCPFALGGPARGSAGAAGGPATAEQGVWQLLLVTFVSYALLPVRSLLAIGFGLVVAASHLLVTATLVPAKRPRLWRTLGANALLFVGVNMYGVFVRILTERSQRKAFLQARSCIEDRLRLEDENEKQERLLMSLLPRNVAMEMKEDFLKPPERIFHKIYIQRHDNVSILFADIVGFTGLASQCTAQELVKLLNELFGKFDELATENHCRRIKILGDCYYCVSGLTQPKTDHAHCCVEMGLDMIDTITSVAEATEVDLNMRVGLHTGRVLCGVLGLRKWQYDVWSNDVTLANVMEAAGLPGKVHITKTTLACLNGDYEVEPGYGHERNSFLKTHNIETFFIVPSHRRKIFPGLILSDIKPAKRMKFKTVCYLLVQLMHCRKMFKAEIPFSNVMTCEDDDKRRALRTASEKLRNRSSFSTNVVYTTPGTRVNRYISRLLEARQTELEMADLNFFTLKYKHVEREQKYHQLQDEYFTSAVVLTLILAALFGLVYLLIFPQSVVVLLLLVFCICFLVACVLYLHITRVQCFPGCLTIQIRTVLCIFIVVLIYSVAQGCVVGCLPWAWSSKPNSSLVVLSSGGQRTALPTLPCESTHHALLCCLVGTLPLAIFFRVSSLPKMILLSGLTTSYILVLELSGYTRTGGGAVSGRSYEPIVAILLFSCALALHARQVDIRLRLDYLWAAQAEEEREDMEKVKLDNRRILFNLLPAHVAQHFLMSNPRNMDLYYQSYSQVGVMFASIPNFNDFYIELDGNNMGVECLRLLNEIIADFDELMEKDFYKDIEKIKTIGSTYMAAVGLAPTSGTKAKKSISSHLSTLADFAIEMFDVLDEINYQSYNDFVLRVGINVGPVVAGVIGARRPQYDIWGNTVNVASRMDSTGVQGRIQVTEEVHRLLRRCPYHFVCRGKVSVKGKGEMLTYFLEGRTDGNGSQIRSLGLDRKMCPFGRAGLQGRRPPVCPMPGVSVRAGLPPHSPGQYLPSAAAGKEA

On to `O=C(Nc1nnc(-c2ccc(F)cc2)o1)c1ccc(S(=O)(=O)N2CCCCC2)cc1` [AC10036, N-(5-(4-fluorophenyl)-1,3,4-oxadiazol-2-yl)-4-(piperidin-1-ylsulfonyl)benzamide], for which, in experiment [1], the inhibition at 30 µM amounted to 83 ± 6%. In experiment [2], the inhibition at 30 µM was determined as 38 ± 7% and the IC50 is 39 ± 16 µM.
Take `O=C(Nc1nnc(-c2ccc3c(c2)CCCC3)o1)c1ccc(Cl)cc1` [AC10061, 4-chloro-N-(5-(5,6,7,8-tetrahydronaphthalen-2-yl)-1,3,4-oxadiazol-2-yl)benzamide]: the inhibition at 30 µM in experiment [1] turned out to be 99 ± 1%; in experiment [2], 90 ± 0.4%.
As to `Cc1ccc(C(=O)Nc2nnc(-c3ccc(F)cc3)o2)cc1` [AC10031, N-(5-(4-fluorophenyl)-1,3,4-oxadiazol-2-yl)-4-methylbenzamide], in experiment [1], the inhibition at 30 µM is 80 ± 10% and the 50% inhibitory concentration (IC50) was 7.3 ± 2 µM. Besides, in experiment [2], the inhibition at 30 µM came out at 31 ± 6% and the concentration for half-maximal inhibition (IC50) was found to be 61 ± 33 µM.
On the same counts, the results for `Cc1ccc(C(=O)Nc2nnc(-c3ccc4c(c3)CCCC4)o2)cc1C(F)(F)F` [AC10073, 4-methyl-N-(5-(5,6,7,8-tetrahydronaphthalen-2-yl)-1,3,4-oxadiazol-2-yl)-3-(trifluoromethyl)benzamide] are 64 ± 8%, 26 ± 11 µM, 65 ± 12% and 13 ± 2 µM.
On the same counts, the results for `O=C(Nc1nnc(-c2cccs2)o1)c1ccccc1` [AC10006, N-(5-(thiophen-2-yl)-1,3,4-oxadiazol-2-yl)benzamide] are 56 ± 5%, 29 ± 3 µM, 18 ± 2% and 101 ± 3 µM.
Turning to `O=C(Nc1nnc(-c2ccc3c(c2)CCCC3)o1)c1cccc(F)c1` [AC10059, 3-fluoro-N-(5-(5,6,7,8-tetrahydronaphthalen-2-yl)-1,3,4-oxadiazol-2-yl)benzamide], in experiment [1], the inhibition at 30 µM was found to be 99 ± 0.4% and the IC50 was found to be 1 ± 0.3 µM. For the same molecule, in experiment [2], the inhibition at 30 µM amounted to 90 ± 1% and the IC50 amounted to 4.2 ± 0.2 µM.
On to `O=C(Nc1nnc(C2CCCCC2)o1)c1ccc(Cl)cc1` [AC10055, 4-chloro-N-(5-cyclohexyl-1,3,4-oxadiazol-2-yl)benzamide], for which the values for the inhibition at 30 µM in experiment [1] and in experiment [2] were 71 ± 5% and 10 ± 12%, respectively. Moreover, in experiment [1], the concentration for half-maximal inhibition (IC50) was found to be 13.5 ± 2 µM.
For `O=C(Nc1nnc(-c2cccs2)o1)c1ccc(Br)cc1` [AC10009, 4-Bromo-N-(5-(thiophen-2-yl)-1,3,4-oxadiazol-2-yl)benzamide], in experiment [1], the inhibition at 30 µM turned out to be 81 ± 1% and the half-inhibitory concentration (IC50) was found to be 7.7 ± 1 µM. In experiment [2], the inhibition at 30 µM was 41 ± 9% and the half-inhibitory concentration (IC50) was found to be 55 ± 20 µM.
In the same order, the values of `O=C(Nc1nnc(-c2ccc3c(c2)CCCC3)o1)c1cccc(C(F)(F)F)c1` [AC10026, N-(5-(5,6,7,8-tetrahydronaphthalen-2-yl)-1,3,4-oxadiazol-2-yl)-3-(trifluoromethyl)benzamide] are 100 ± 1%, 1.6 ± 0.2 µM, 82 ± 7% and 7.9 ± 3 µM.
On the same counts, the results for `O=C(Nc1nnc(-c2ccc3c(c2)OCCO3)o1)c1cccc(C(F)(F)F)c1` [AC10023, N-(5-(2,3-dihydrobenzo[b][1,4]dioxin-6-yl)-1,3,4-oxadiazol-2-yl)-3-(trifluoromethyl)benzamide] are 100 ± 0.2%, 5.1 ± 0.7 µM, 60 ± 8% and 32 ± 12 µM.
On the same counts, the results for `O=C(Nc1nnc(-c2ccc3c(c2)CCCC3)o1)c1ccc(Br)cc1` [AC10005, 4-bromo-N-(5-(5,6,7,8-tetrahydronaphthalen-2-yl)-1,3,4-oxadiazol-2-yl)benzamide] are 74 ± 4%, 12.2 ± 3 µM, 64 ± 13% and 27 ± 8 µM.
In the case of `COc1ccc(C(=O)Nc2nnc(C3CCCCC3)o2)cc1` [AC10040, N-(5-cyclohexyl-1,3,4-oxadiazol-2-yl)-4-methoxybenzamide], the values for the inhibition at 30 µM in experiment [1] and in experiment [2] were 73 ± 1% and 6 ± 16%, respectively. The half-inhibitory concentration (IC50) in experiment [1] is 22 ± 3 µM.
On to `CCc1ccc(C(=O)Nc2nnc(C3CCCCC3)o2)cc1` [AC10045, N-(5-cyclohexyl-1,3,4-oxadiazol-2-yl)-4-ethylbenzamide], for which, in experiment [1], the inhibition at 30 µM was determined as 91 ± 4% and the half-inhibitory concentration (IC50) is 7.3 ± 3 µM. In addition, in experiment [2], the inhibition at 30 µM stood at 44 ± 7% and the IC50 was 71 ± 14 µM.
On the same counts, the results for `CSc1cccc(C(=O)Nc2nnc(-c3cccs3)o2)c1` [AC10012, 3-(methylthio)-N-(5-(thiophen-2-yl)-1,3,4-oxadiazol-2-yl)benzamide] are 84 ± 5%, 11 ± 2 µM, 34 ± 1% and 66 ± 2 µM.
Consider `O=C(Nc1nnc(C2CCCCC2)o1)c1ccccc1` [AC10003, N-(5-cyclohexyl-1,3,4-oxadiazol-2-yl)benzamide], for which, in experiment [1], the inhibition at 30 µM turned out to be 65 ± 4% and the half-maximal inhibitory concentration (IC50) amounted to 24.5 ± 2 µM. Further, the inhibition at 30 µM in experiment [2] amounted to 3 ± 6%.
On to `CSc1cccc(C(=O)Nc2nnc(-c3ccc4c(c3)CCCC4)o2)c1` [AC10013, 3-(methylthio)-N-(5-(5,6,7,8-tetrahydronaphthalen-2-yl)-1,3,4-oxadiazol-2-yl)benzamide], for which, in experiment [1], the inhibition at 30 µM was found to be 97 ± 4% and the half-inhibitory concentration (IC50) is 1.7 ± 0.7 µM. In addition, in experiment [2], the inhibition at 30 µM came to 68 ± 5% and the IC50 came out at 9.4 ± 2 µM.
On the same counts, the results for `CCc1ccc(C(=O)Nc2nnc(-c3ccc4c(c3)CCCC4)o2)cc1` [AC10062, 4-ethyl-N-(5-(5,6,7,8-tetrahydronaphthalen-2-yl)-1,3,4-oxadiazol-2-yl)benzamide] are 98 ± 1%, 1.2 ± 0.2 µM, 88 ± 2% and 2 ± 0.4 µM.
On the same counts, the results for `Cc1ccc(C(=O)Nc2nnc(-c3ccc4c(c3)OCCO4)o2)cc1C` [AC10035, N-(5-(2,3-dihydrobenzo[b][1,4]dioxin-6-yl)-1,3,4-oxadiazol-2-yl)-3,4-dimethylbenzamide] are 100 ± 1%, 5.3 ± 0.4 µM, 61 ± 1% and 14 ± 3 µM.
For `Cc1ccc(C(=O)Nc2nnc(C3CCCCC3)o2)cc1` [AC10032, N-(5-cyclohexyl-1,3,4-oxadiazol-2-yl)-4-methylbenzamide], the inhibition at 30 µM in experiment [1] was 78 ± 4%; in experiment [2], 1 ± 12%. The IC50 in experiment [1] came out at 15.8 ± 2 µM.
`O=C(Nc1nnc(-c2ccc3c(c2)OCCO3)o1)c1ccccc1` [AC10001, N-(5-(2,3-dihydrobenzo[b][1,4]dioxin-6-yl)-1,3,4-oxadiazol-2-yl)benzamide]: in experiment [1], the inhibition at 30 µM worked out at 60 ± 3% and the half-maximal inhibitory concentration (IC50) is 31 ± 3 µM. Moreover, in experiment [2], the inhibition at 30 µM stood at 24 ± 7% and the half-maximal inhibitory concentration (IC50) turned out to be 102 ± 26 µM.
On the same counts, the results for `O=C(Nc1nnc(C2CCCCC2)o1)c1cccc(-c2ccccc2)c1` [AC10063, N-(5-cyclohexyl-1,3,4-oxadiazol-2-yl)-[1,1′-biphenyl]-3-carboxamide] are 99 ± 1%, 1.4 ± 0.2 µM, 92 ± 1% and 1.4 ± 0.4 µM.
As for `COc1ccc(C(=O)Nc2nnc(-c3ccc(F)cc3)o2)cc1` [AC10039, N-(5-(4-fluorophenyl)-1,3,4-oxadiazol-2-yl)-4-methoxybenzamide], the results for the inhibition at 30 µM in experiment [1] and in experiment [2] were 73 ± 4% and 20 ± 6%, respectively.

These data come from patent US20200031785A1, “METHODS FOR TREATING CHRONIC PAIN AND OPIOID DEPENDENCE USING ADENYLYL CYCLASE INHIBITORS” (Purdue Research Foundation, priority 2017, published 2020).
